Source: ChEMBL document CHEMBL3576768, “α-Glucosidase Inhibitors from a Xylaria feejeensis Associated with Hintonia latiflora” (J Nat Prod, 2015)

What was measured:
[1] = (§1) Inhibition of Saccharomyces cerevisiae alpha-glucosidase using pNPG as substrate preincubated for 10 mins followed by substrate addition measured after 20 mins by spectrophotometric analysis
Saccharomyces cerevisiae = assay: as §1

| SMILES | IC50 [1] [µM] | inhibition (Saccharomyces cerevisiae) |
| --- | --- | --- |
| C[C@@H]1OC(=O)c2c(O)cccc2[C@H]1O | 441 | Dose-dependent effect |
| C[C@H]1O[C@H](O[C@H]2[C@H](O)[C@@H](O)[C@@H](O[C@H]3[C@H](O)[C@@H](O)C(O)O[C@@H]3CO)O[C@@H]2CO)[C@H](O)[C@@H](O)[C@@H]1N[C@H]1C=C(CO)[C@@H](O)[C@H](O)[C@H]1O (stereo not given in full) [ACARBOSE] | 545 |  |
| C[C@@H]1OC(=O)c2c(O)cccc2[C@@H]1O | 549 | Dose-dependent effect |
